In article PMC12298827, “Subchronic Toxicities of Four Per- and Polyfluoroalkyl Substances (PFASs) by Oral Exposure in Sprague–Dawley Rats” (Toxics, 2025):

Tested on: male and female Sprague–Dawley rats
Assay: 90-day subchronic oral gavage toxicity study
Assay type: in vivo, rat
Conditions: female
Method: Subchronic (90-day) studies were performed in accordance with current U.S. EPA’s Toxic Substances Control Act Good Laboratory Practice (GLP) Standards, with the following two general exceptions to the GLP guidelines: Analysis of the dose formulations was conducted according to RTI-approved Standard Operating Procedures, and corn oil (the vehicle) was not characterized (certificate of analysis from the vendor is available in the appendices to the final reports). Male and female Sprague–Dawley rats (five dose levels plus a control, n = 10/sex/dose group, corn oil vehicle dose volume of 3 mL/kg; oral gavage) were used in these studies, and the rats were euthanized on SD 91. The dose levels for PFHI were 0, 12.5, 25, 50, 100, and 200 mg/kg-day. The dose levels for MHFPK were 0, 18.8, 37.5, 75, 150, and 300 mg/kg-day. The dose levels for PFNAC were 0, 0.1, 0.3, 1.0, 3.0, and 10 mg/kg-day for male rats and 0, 0.3, 1.0, 3.0, 10, and 30 mg/kg-day for female rats. For CTFPA, the dose levels were 0, 1.9, 3.8. 7.5, 15, and 30 mg/kg-day for male rats and 0, 6.3, 12.5, 25, 50, and 100 mg/kg-day for female rats. For each PFAS, three batches of dosing solution were prepared. The time between the batch preparation of the dosing solutions ranged between 29 and 39 days. Blood samples were collected from all the rats at termination for serum chemistry, hematology, coagulation, and the analysis of the parent PFAS chemical in the plasma. In vivo data collection and further detail on the endpoints examined postmortem are described below.
The rats were observed twice daily for morbidity and mortality throughout the study period. At least once prior to randomization to test groups and weekly thereafter, the rats were physically examined, and bodyweights were obtained. Feed consumption was quantified weekly starting on SD 1.
Neurotoxicity was evaluated using the functional observational battery (FOB) and measuring locomotor activity (LMA) 2–4 h post dosing on SDs 78–80 and 80–84, respectively. For both the 14- and 90-day studies, an ophthalmologic examination was conducted prior to randomization and near the end of the study, using indirect ophthalmoscopy and slit–lamp biomicroscopy (as needed) after the administration of a mydriatic solution.
Hematology, biochemistry, and coagulation endpoints were measured at the termination of the study. A Siemens Advia 2120i hematology analyzer (Siemens Healthineers, Erlangen, Germany) was used to measure (or calculate) the parameters related to the complete blood count, leukocyte differential count, and reticulocyte count. The hematology parameters are listed and described in Table 2. The prothrombin time […] and activated partial thromboplastin time (APTT) were measured using an Instrumentation Laboratory (Bedford, MA, USA) ACL Elite Pro coagulation analyzer (laser–nephelometric centrifugal method).
At necropsy, the rats were visually examined for external abnormalities and organ weights (absolute and relative to the BW and brain weight), which were recorded (paired organs weighed together). The tissues were preserved in 10% neutral buffered formalin (NBF), except for the ocular tissues, testes, and epididymides, which were preserved in modified Davidson’s fixative and later transferred to 10% NBF. Bone marrow smears were prepared from the femurs, and the slides were air-dried, fixed in methanol, stained, and stored at room temperature for possible future evaluation. The preserved tissues were embedded in paraffin, sectioned, stained with hematoxylin and eosin, and examined by a board-certified veterinary pathologist.
Statistical analysis was performed using Provantis™ Version 10 or greater (Instem LSS, Limited; Stone, Staffordshire, UK). Differences among the treatment groups compared to the control were evaluated using one-way analysis of variance (ANOVA) if the underlying assumptions of a normal distribution (Shapiro–Wilk test) and the homogeneity of the variance (Levene’s test) were satisfied. […]

In the case of CC(=O)C(F)(F)C(F)(F)C(F)(F)F [MHFPK, Methyl heptafluoropropyl ketone], the “% Diff, % BW Gain” value (75 mg/kg-day) is reported as 4.28%, the “% Diff, Total BW change” value (75 mg/kg-day) is reported as 4.15% and the “% Diff, Total Food Consumed” value (75 mg/kg-day) is reported as 4.34%. It also gave an A/G (75 mg/kg-day) of 1.27±0.60 ratio, an ABEOS (75 mg/kg-day) of 0.090±0.027 K/µL and an ABNEUT (75 mg/kg-day) of 1.005±0.441 K/µL. For the same compound, the ABRETi (75 mg/kg-day) was 193.71±46.37 10^9/L, the ALB (75 mg/kg-day) was 4.45 ± 0.91 g/dL and the ALPi (75 mg/kg-day) was 55.0±18.5 U/L. It also gave an APTT (75 mg/kg-day) of 18.68 s, a BUN (75 mg/kg-day) of 16.5 ± 2.1 mg/dL and a CHOL (75 mg/kg-day) of 99.1 ± 21.5 mg/dL. For the same compound, the GLOB (75 mg/kg-day) was 3.85 ± 0.96 g/dL, the GLUC (75 mg/kg-day) was 159.0 ± 32.6 mg/dL and the HCT (75 mg/kg-day) was 45.88±1.35%. The HGB (75 mg/kg-day) was 14.40 ± 0.50 g/dL, the “Kidney Weight” value (75 mg/kg-day) was 1.91 g and the “Kidney/Body Weight” value (75 mg/kg-day) was 0.59%. For the same compound, the “Kidney/Brain Weight” value (75 mg/kg-day) was 96.8%, the “Liver Weight” value (75 mg/kg-day) was 8.53 g and the “Liver/Body Weight” value (75 mg/kg-day) was 2.62%. The “Liver/Brain Weight” value (75 mg/kg-day) was 432%, the MPV (75 mg/kg-day) was 8.55 ± 0.75 fL and the PT (75 mg/kg-day) was 14.74 s. For the same compound, the RBC (75 mg/kg-day) was 7.823±0.340 M/µL, the “Total BW change” value (75 mg/kg-day) was 94.83 g and the “Total Food Consumed” value (75 mg/kg-day) was 1522 g. For the same compound, the “% BW Gain” value (150 mg/kg-day) was 37.70%, the “% Diff, % BW Gain” value (150 mg/kg-day) was -0.15% and the “% Diff, Total BW change” value (150 mg/kg-day) was -0.78%. For the same compound, the “% Diff, Total Food Consumed” value (150 mg/kg-day) was 5.76%, the A/G (150 mg/kg-day) was 1.14±0.34 ratio and the ABEOS (150 mg/kg-day) was 0.093±0.035 K/µL. The ABNEUT (150 mg/kg-day) was 1.175±0.584 K/µL, the ABRETi (150 mg/kg-day) was 193.46±35.08 10^9/L and the ALB (150 mg/kg-day) was 4.37 ± 0.51 g/dL. For the same compound, the ALPi (150 mg/kg-day) was 47.5±8.8 U/L, the APTT (150 mg/kg-day) was 21.76 s and the BUN (150 mg/kg-day) was 18.2 ± 2.9 mg/dL. The CHOL (150 mg/kg-day) was 104.3 ± 20.7 mg/dL, the GLOB (150 mg/kg-day) was 4.00 ± 0.81 g/dL and the GLUC (150 mg/kg-day) was 166.7 ± 26.3 mg/dL. The HCT (150 mg/kg-day) was 45.40±1.55%, the HGB (150 mg/kg-day) was 14.27 ± 0.54 g/dL and the “Kidney Weight” value (150 mg/kg-day) was 1.84 g. The “Kidney/Body Weight” value (150 mg/kg-day) was 0.57%, the “Kidney/Brain Weight” value (150 mg/kg-day) was 95.8% and the “Liver Weight” value (150 mg/kg-day) was 8.84 g. For the same compound, the “Liver/Body Weight” value (150 mg/kg-day) was 2.74%, the “Liver/Brain Weight” value (150 mg/kg-day) was 462% and the MPV (150 mg/kg-day) was 8.84 ± 0.70 fL. For the same compound, the PT (150 mg/kg-day) was 14.99 s, the RBC (150 mg/kg-day) was 7.731±0.255 M/µL and the “Total BW change” value (150 mg/kg-day) was 90.34 g. For the same compound, the “Total Food Consumed” value (150 mg/kg-day) was 1542 g, the “% BW Gain” value (300 mg/kg-day) was 39.88% and the “% Diff, % BW Gain” value (300 mg/kg-day) was 5.61%. The “% Diff, Total BW change” value (300 mg/kg-day) was 5.11%, the “% Diff, Total Food Consumed” value (300 mg/kg-day) was 7.99% and the A/G (300 mg/kg-day) was 1.01±0.13 ratio. The ABEOS (300 mg/kg-day) was 0.085±0.022 K/µL, the ABNEUT (300 mg/kg-day) was 1.220±0.506 K/µL and the ABRETi (300 mg/kg-day) was 181.86±36.58 10^9/L. The ALB (300 mg/kg-day) was 4.15 ± 0.28 g/dL, the ALPi (300 mg/kg-day) was 54.1±22.2 U/L and the APTT (300 mg/kg-day) was 22.79 s. The BUN (300 mg/kg-day) was 17.6 ± 4.5 mg/dL, the CHOL (300 mg/kg-day) was 107.5 ± 21.4 mg/dL and the GLOB (300 mg/kg-day) was 4.16 ± 0.64 g/dL. For the same compound, the GLUC (300 mg/kg-day) was 151.4 ± 28.6 mg/dL, the HCT (300 mg/kg-day) was 48.02±1.91% and the HGB (300 mg/kg-day) was 14.98 ± 0.42 g/dL. The “Kidney Weight” value (300 mg/kg-day) was 1.94 g, the “Kidney/Body Weight” value (300 mg/kg-day) was 0.59% and the “Kidney/Brain Weight” value (300 mg/kg-day) was 97.1%. The “Liver Weight” value (300 mg/kg-day) was 8.59 g, the “Liver/Body Weight” value (300 mg/kg-day) was 2.63% and the “Liver/Brain Weight” value (300 mg/kg-day) was 430%.
